Experiment [1] concerns mice with cyclophosphamide-induced alopecia areata. Nature of the experiment: Hair length (vernier caliper) and hair weight (balance) after the final administration. Format: in vivo. To be noted: gavage once daily, after final administration (Day 28); for Hair length: CP-induced alopecia areata mice; for Hair weight: regrown hair of depilated area. As for the experimental part: (§1) 60 male C57/BL-6 mice aged 6-8 weeks were evenly divided into 6 groups with 10 mice per group. These groups were: a control group, a model group, a CE (15 mg/kg) group, a CE (30 mg/kg) group, a BT (1 mg/kg) group, and a CE+BT (15+0.5 mg/kg) group. After 1 week of normal feeding, the dorsal hair of the mice was shaved using a depilatory device to prepare the skin (2×3 cm^2). Then, depilatory cream was applied to the prepared skin area to ensure complete removal of the hair on the back of the mice. From the day after depilation, each group of mice was administered once daily by gavage.
(§2) On Day 9 of administration in the aforementioned experiment, cyclophosphamide (abbreviated as CP) was intraperitoneally injected to each mouse in the model group (not administered with CE and/or BT), the CE (15 mg/kg) group, the CE (30 mg/kg) group, the BT (1 mg/kg) group, and the CE+BT (15+0.5 mg/kg) group to establish the AA model. The method for establishing the model is described in the literature: "Effect of CeO2 Nanoenzyme on Hair Growth of Mice with Cyclophosphamide-Induced Alopecia Areata", PENG Xinxin et al., J Shanxi Med Univ, Feb. 2024, Vol. 55, No. 2, p.192.
After the final administration (on Day 28), the length of dorsal hair of the mice in each group was measured using a vernier caliper. Subsequently, the regrown hair in the original depilated area was removed using a depilatory device, and was weighed using a balance. Table 2 Effects of CE, BT and CE+BT on hair length and hair weight in the mice with cyclophosphamide-induced alopecia areata

Experiment [2] deals with JAK3/STAT3 signaling pathway. Nature of the experiment: Western blotting of p-JAK3/JAK3 and p-STAT3/STAT3 in mouse skin tissue. Format: in vivo, mice. To be noted: Western blot gray values, versus model group. On the procedure:
The expression levels of p-JAK3/JAK3 and p-STAT3/STAT3 proteins were detected by Western blotting using the half of the skin samples that were stored in the freezer at -80°C as described in Example 2. • p-JAK3: purchased from Absin, Cat No.: abs139988; • JAK3: purchased from Absin, Cat No.: abs115170; • p-STAT3: purchased from Absin, Cat No.: abs130919; • STAT3: purchased from Absin, Cat No.: abs155916.
The mouse skin samples stored at -80°C were taken out. 50 mg of skin tissue was cut with surgical scissors from each sample and respectively placed into 2 mL EP tubes. 500 µL of RIPA lysis buffer (available from Servicebio, Cat No.: G2002-100ML) (containing 5µL of protease inhibitor PMSF, available from Servicebio, Cat No.: G2008-1ML) was added to each EP tube. The skin was then disrupted by a cell grinding rod that is inserted into the 2 mL EP tube. […]
The total protein concentration in the supernatant was determined using a BCA kit (G2026-200T, Servicebio) following the protocol in the instruction manual. […]
The previously prepared resolving gel and stacking gel were clamped onto the main body of the gel-casting apparatus, with the stacking gel on the top and the resolving gel on the bottom. […] The gel casting apparatus was then disassembled and placed in the transfer buffer (Cat No.: G2028-1L, available from Servicebio) to be ready for subsequent membrane transfer procedure. […]
(In general: Immunoblotting shows a protein as a band on a membrane.)

The test system of experiment [3] is mice with cyclophosphamide-induced alopecia areata. Nature of the experiment: Preventive effect on hair loss in cyclophosphamide-induced alopecia areata (dorsal images). Type of experiment: in vivo. To be noted: gavage, Day 7 after CP injection, versus model group. On the procedure:
as §2
Whether the model has been successfully established was determined by observing the hair loss in each group of mice, wherein the onset of hair loss indicated the successful model establishment.
Images of the dorsal region of the mice were captured on Day 9 of administration (Day 0 after CP injection), Day 14 (Day 5after CP injection), and Day 16 (Day 7 after CP injection). In Figure 2, gavage administration was used for administering CE and/or BT to the mice in the CE (15 mg/kg) group, the CE (30 mg/kg) group, the BT (1 mg/kg) group, and the CE+BT (15+0.5 mg/kg) group; and intraperitoneal injection was used for administering CP to the mice in the model group, the CE (15 mg/kg) group, the CE (30 mg/kg) group, the BT (1 mg/kg) group, and the CE+BT (15+0.5 mg/kg) group. […]

For a further experiment, the system named is C57/BL-6 mice. Nature of the experiment: Hair growth of depilated mice after 9 days of gavage administration (dorsal images, hair score by IMAGE J). Type of experiment: in vivo. To be noted: first 9 days after depilation. On the procedure:
as §1
The substances to be administered were prepared as follows: The aqueous solution of 0.5% sodium carboxymethylcellulose: First, 0.5 g of sodium carboxymethylcellulose powder was added to 100 mL of distilled water, and then the mixture was placed in a water bath and heated at 60-70 °C. […]
Images of the dorsal region of the mice were captured at key time points of hair growth (i.e. Day 0 and Day 9), respectively. In addition, the gray values in the depilated areas on the dorsal region of the mice in Figure a were analyzed using IMAGE J software (National Institutes of Health, USA) to obtain hair scores. In Figure b, the hair scores represent the quantified gray values of the hair on the back skin of the mice.

These results are taken from patent publication EP4799617A1, “PHARMACEUTICAL COMPOSITION HAVING JAK INHIBITORY EFFECT” (Orxes Chinese Medicine (Shanghai) Co., Ltd., priority 2024, dated 2025).

In experiment [1] (BT 1 mg/kg), `CCS(=O)(=O)N1CC(CC#N)(n2cc(-c3ncnc4[nH]ccc34)cn2)C1` [BT, baricitinib] had a Hair length of 6.51±0.61 mm and a Hair weight of 38.62 ± 6.02 mg.
`C[C@@H]1CC[C@H]2C(C)(C)[C@H]3C[C@@]12CC[C@@]3(C)O` [CE, cedrol]: the “relative viabilities of p-JAK3/JAK3 and p-STAT3/STAT3” value in experiment [2] (CE 15 mg/kg) and in experiment [2] (CE 30 mg/kg) was “significantly different from that in the model group” each time. The hair loss result in experiment [3] (CE 15 mg/kg) and in experiment [3] (CE 30 mg/kg) was “significantly better than that of the model group” each time. Also, the Hair length in experiment [1] (CE 15 mg/kg) is on record as 5.98±1.22 mm; in experiment [1] (CE 30 mg/kg), 6.78±1.32 mm. Moreover, the Hair weight was determined as 35.38 ± 6.88 mg in experiment [1] (CE 15 mg/kg) and 43.51 ± 6.45 mg in experiment [1] (CE 30 mg/kg). The hair growth entry in the experiment on C57/BL-6 mice (CE 15 mg/kg) and in the experiment with C57/BL-6 mice (CE 30 mg/kg) was “significant hair growth” in each case.
